Earlier results on one compound are cited in patent publication US20170112824A1, “COMBINATION THERAPIES FOR THE TREATMENT OF FUNGAL INFECTIONS” (priority 2015, published 2017).

The conditions of data set [1]: in vivo.

`NC(=O)NO` [Hydroxyurea, hydroxyurea]: the water solubility entry was “water-soluble”. In data set [1], the absorption result is listed as “readily absorbed”.
